{"source": "patent US8101589B2", "about": "“Nitric oxide-releasing molecules” (Noxilizer, Inc., priority 2004, dated 2012)", "origin": "cited, not measured here", "details": "literature (Traube, 1898)"}
{"substance": "methylene bisdiazeniumdiolate", "values": [{"measurement": "NO release in solution", "result": "inability to release NO"}]}
